# From patent US20250326771A1, “PIPERAZINE DERIVATIVES USEFUL IN HIV THERAPY” (VIIV HEALTHCARE COMPANY, priority 2022, published 2025)
# Legend:
# cIAP1-BIR2 = cIAP1-BIR2 (Homo sapiens (Human), UniProt Q13490); test: BIR binding assay (FRET competition), cIAP1 BIR2
# Summary of the method: (§1)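 Compounds tested as 15-point, 3-fold series displacing 200 nM AlexaFluor647-labelled SMAC peptide from His-tagged BIR domain (cIAP1-BIR3 50 nM; cIAP1-BIR2 and cIAP2-BIR2 325 nM; XIAP-BIR3 100 nM), pH 7.4, 60 min. Eu-W1024 (2 nM) added 30 min; emission ratio fitted for IC50.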
# XIAP-BIR3 = XIAP-BIR3 (Homo sapiens (Human), UniProt P98170); test: BIR binding assay (FRET competition), XIAP BIR3
# XIAP-BIR3, sequence (P98170 241-356): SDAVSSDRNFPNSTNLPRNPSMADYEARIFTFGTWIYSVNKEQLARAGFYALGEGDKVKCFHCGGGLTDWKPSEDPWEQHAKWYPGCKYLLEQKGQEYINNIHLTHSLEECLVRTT
# Summary of the method: as §1
# cIAP2-BIR2 = cIAP2-BIR2 (Homo sapiens (Human), UniProt Q13489); test: BIR binding assay (FRET competition), cIAP2 BIR2
# cIAP2-BIR2, sequence (Q13489 158-242): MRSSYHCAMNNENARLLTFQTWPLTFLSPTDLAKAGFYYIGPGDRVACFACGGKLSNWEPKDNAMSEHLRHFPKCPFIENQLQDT
# Description: The BIR domain binding assays are FRET based competition assays that utilize His-tagged versions of each of the BIR2 and BIR3 domains from cIAP1, cIAP2, and XIAP (each domain assayed separately) each at a custom optimal concentration and a probe, 200 nM SMAC/DIABLO peptide […] labelled with AlexaFluor647 (part #crb 1110326h, Discovery Peptides). The assay is conducted in 50 mM HEPES, […], 1 mM CHAPS, 5% Glycerol, 1 mM DTT, in dI water with a final pH of 7.4 and final volume of 20 uL. Final protein domain concentrations are: 50 nM cIAP1-BIR3 (Part #APT-11-370 Reaction Biology), 100 nM XIAP-BIR3 (Part #APT-11-351 Reaction Biology), 200 nM XIAP-BIR2 (Part #APT-11-470 Reaction Biology), 325 nM cIAP2-BIR2 (Part #APT-11-489 Reaction Biology), 50 nM cIAP2-BIR3 (Part #APT-11-372 Reaction Biology), 325 nM cIAP1-BIR2 (Part #APT-11-487 Reaction Biology). Compounds were plated using a HP Tecan D300 printer in a final total volume of 202 nl and DMSO concentration normalized across the 15-point, 3-fold dilution series. Peptide and probe were prepared at 2× relative to the concentrations above in binding buffer, 10 uL added to the prepared compound plates, and incubated for 60 minutes. LANCE Eu-W1024 (part #AD0401 Perkin Elmer #, vendor) was prepared at 2× concentration in binding buffer for final concentration of 2 nM, 10 uL added to each well, and plates incubated for 30 minutes. Plates were read on an ENVISION multifunction plate reader with […] laser excitation to obtain the 615 nm/665 nm emission ratio as indicative of probe:protein proximity. Data was analyzed using GraphPad PRISM and curves fit using log(inhibitor) vs. response—Variable slope (four […] method to obtain IC50 and pIC50 values.
# cIAP1-BIR3 = cIAP1-BIR3 (Homo sapiens (Human), UniProt Q13490); test: BIR binding assay (FRET competition), cIAP1 BIR3; conditions: for cIAP1 BIR3 vs BIR2 separation window: fold separation (FS) for cIAP1
# cIAP1-BIR3, sequence (Q13490 253-363): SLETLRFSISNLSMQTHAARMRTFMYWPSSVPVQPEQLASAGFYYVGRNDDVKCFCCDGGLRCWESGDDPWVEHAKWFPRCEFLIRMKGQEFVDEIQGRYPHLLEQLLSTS
# Summary of the method: as §1
# [1] = tested on: Jurkat HIV-luciferase clones; test: Jurkat latency reversal assay; type: cell-based; conditions: Homo sapiens, 48 h; Jurkat latency reversal assay potency; read-out: Jurkat pEC50 (converted)
# Summary of the method: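 Pooled Jurkat clones C16, 115 and N6, each carrying one or two integrated HIV-luciferase proviruses and kept in 500 nM EFV, were exposed to 3-fold, 14-point compound titrations in duplicate (10 μM top, 0.5% DMSO) for 48 h at 37° C. Luciferase luminescence was fitted by four-parameter logistic regression for EC50 and maximal percent activation versus vehicle.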
# cIAP2-BIR3 = cIAP2-BIR3 (Homo sapiens (Human), UniProt Q13489); test: BIR binding assay (FRET competition), cIAP2 BIR3; conditions: for cIAP2 BIR3 vs BIR2 separation window: fold separation (FS) for cIAP2
# cIAP2-BIR3, sequence (Q13489 238-349): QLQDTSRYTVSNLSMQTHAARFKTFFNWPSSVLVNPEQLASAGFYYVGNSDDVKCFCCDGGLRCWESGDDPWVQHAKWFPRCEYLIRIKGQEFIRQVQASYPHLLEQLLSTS
# cIAP1-BIR2, sequence (Q13490 173-257): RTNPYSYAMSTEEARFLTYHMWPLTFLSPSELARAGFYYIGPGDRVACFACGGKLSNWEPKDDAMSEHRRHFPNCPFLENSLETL
Structure (SMILES),IC50 (cIAP1-BIR2),IC50 (XIAP-BIR3),IC50 (cIAP2-BIR2),IC50 (cIAP1-BIR3),cIAP1 BIR3 vs BIR2 separation window (cIAP1-BIR3),EC50 [1],IC50 (cIAP2-BIR3),cIAP2 BIR3 vs BIR2 separation window (cIAP2-BIR3)
"C[C@@H]1CN(CC(=O)N2CC(C)(C)c3[nH]c(=O)c(Cc4ccc(Cl)cc4)cc32)[C@@H](CN2CCO[C@H](C(=O)NCc3ccc(CNC(=O)[C@@H]4CN(C[C@H]5CN[C@H](C)CN5CC(=O)N5CC(C)(C)c6[nH]c(=O)c(Cc7ccc(Cl)cc7)cc65)CCO4)cc3)C2)CN1 [Compound 161, (2S,2′S)-N,N′-(1,4-phenylenebis(methylene)) bis(4-(((2R,5R)-1-(2-(6-(4-chlorobenzyl)-3,3-dimethyl-5-oxo-2,3,4,5-tetrahydro-1H-pyrrolo[3,2-b]pyridin-1-yl)-2-oxoethyl)-5-methylpiperazin-2-yl)methyl)morpholine-2-carboxamide)]",0.0224 to 1 µM,7.94 to 15.8 nM,10 to 51.3 µM,1.38 to 7.94 nM,"+++ (10,000>FS>1,000)",0.49 to 12.6 nM,1.38 to 7.94 nM,"++++ (FS>10,000)"
COc1cc(F)ccc1Cc1cnc2c(c1)N(C(=O)CN1C[C@@H](C)NC[C@@H]1CN1CCO[C@H](COc3cccc(OC[C@@H]4CN(C[C@H]5CN[C@H](C)CN5CC(=O)N5CC(C)(C)c6ncc(Cc7ccc(F)cc7OC)cc65)CCO4)c3)C1)CC2(C)C [Compound 151],3.16 to 10 µM,31.6 to 501 nM,3.16 to 10 µM,15.8 to 31.6 nM,"+++ (10,000>FS>1,000)",63.1 to 316 nM,7.94 to 15.8 nM,"+++ (10,000>FS>1,000)"
"C[C@@H]1CN(CC(=O)N2CC(C)(C)c3[nH]c(=O)c(Cc4ccc(F)cc4)cc32)[C@@H](CN2CCO[C@H](COc3ccccc3-c3ccccc3OC[C@@H]3CN(C[C@H]4CN[C@H](C)CN4CC(=O)N4CC(C)(C)c5[nH]c(=O)c(Cc6ccc(F)cc6)cc54)CCO3)C2)CN1 [Example 67, 1,1′-(2,2′-((3R,3′R,6R,6′R)-(((2S,2'S)—(([1,1′-biphenyl]-2,2′-diylbis(oxy))bis(methylene))bis(morpholine-2,4-diyl))bis(methylene))bis(3-methylpiperazine-6,1-diyl))bis(acetyl))bis(6-(4-fluorobenzyl)-3,3-dimethyl-1,2,3,4-tetrahydro-5H-pyrrolo[3,2-b]pyridin-5-one)]",1 to 3.16 µM,7.94 to 15.8 nM,3.16 to 10 µM,7.94 to 15.8 nM,–,0.49 to 12.6 nM,7.94 to 15.8 nM,–
COC(=O)c1cc(F)ccc1Cc1cnc2c(c1)N(C(=O)CN1C[C@@H](C)NC[C@@H]1CN1CCO[C@H](COc3cccc(OC[C@@H]4CN(C[C@H]5CN[C@H](C)CN5CC(=O)N5CC(C)(C)c6ncc(Cc7ccc(F)cc7C(=O)OC)cc65)CCO4)c3)C1)CC2(C)C [Compound 152],3.16 to 10 µM,31.6 to 501 nM,3.16 to 10 µM,7.94 to 15.8 nM,"+++ (10,000>FS>1,000)",63.1 to 316 nM,7.94 to 15.8 nM,"+++ (10,000>FS>1,000)"
"C[C@@H]1CN(CC(=O)N2CC(C)(C)c3[nH]c(=O)c(Cc4ccc(Cl)cc4C(F)(F)F)cc32)[C@@H](CN2CCO[C@H](C(=O)NCc3ccc(CNC(=O)[C@@H]4CN(C[C@H]5CN[C@H](C)CN5CC(=O)N5CC(C)(C)c6[nH]c(=O)c(Cc7ccc(Cl)cc7C(F)(F)F)cc65)CCO4)cc3)C2)CN1 [Compound 170, (2S,2′S)-N,N′-(1,4-phenylenebis(methylene)) bis(4-(((2R,5R)-1-(2-(6-(4-chloro-2-(trifluoromethyl)benzyl)-3,3-dimethyl-5-oxo-2,3,4,5-tetrahydro-1H-pyrrolo[3,2-b]pyridin-1-yl)-2-oxoethyl)-5-methylpiperazin-2-yl)methyl)morpholine-2-carboxamide)]",3.16 to 10 µM,15.8 to 31.6 nM,1 to 3.16 µM,1.38 to 7.94 nM,"+++ (10,000>FS>1,000)",12.6 to 63.1 nM,1.38 to 7.94 nM,"+++ (10,000>FS>1,000)"
"C[C@@H]1CN(CC(=O)N2CC(C)(C)c3[nH]c(=O)c(Cc4ccc(F)cc4)cc32)[C@@H](CN2CCN(C(=O)COc3ccc(OCC(=O)N4CCN(C[C@H]5CN[C@H](C)CN5CC(=O)N5CC(C)(C)c6[nH]c(=O)c(Cc7ccc(F)cc7)cc65)[C@H](C)C4)cc3)C[C@H]2C)CN1 [Example 13, 1,1′-(2,2′-((3R,3′R,6R,6′R)-(((2R,2′R)-(2,2′-(1,4-phenylenebis(oxy))bis(acetyl))bis(2-methylpiperazine-4,1-diyl))bis(methylene))bis(3-methylpiperazine-6,1-diyl))bis(acetyl))bis(6-(4-fluorobenzyl)-3,3-dimethyl-1,2,3,4-tetrahydro-5H-pyrrolo[3,2-b]pyridin-5-one)]",0.0224 to 1 µM,15.8 to 31.6 nM,1 to 3.16 µM,15.8 to 31.6 nM,–,63.1 to 316 nM,15.8 to 31.6 nM,–
"C[C@@H]1CN(CC(=O)N2CC(C)(C)c3[nH]c(=O)c(Cc4ccc(F)cc4)cc32)[C@@H](CN2CCO[C@H](COCCCCCOC[C@@H]3CN(C[C@H]4CN[C@H](C)CN4CC(=O)N4CC(C)(C)c5[nH]c(=O)c(Cc6ccc(F)cc6)cc54)CCO3)C2)CN1 [Example 82, 1,1′-(2,2′-((3R,3′R,6R,6′R)-(((2S,2'S)-((pentane-1,5-diylbis(oxy))bis(methylene))bis(morpholine-2,4-diyl))bis(methylene))bis(3-methylpiperazine-6,1-diyl))bis(acetyl))bis(6-(4-fluorobenzyl)-3,3-dimethyl-1,2,3,4-tetrahydro-5H-pyrrolo[3,2-b]pyridin-5-one)]",10 to 51.3 µM,31.6 to 501 nM,1 to 3.16 µM,15.8 to 31.6 nM,"++++ (FS>10,000)",0.49 to 12.6 nM,15.8 to 31.6 nM,"+++ (10,000>FS>1,000)"
"C[C@@H]1CN(CC(=O)N2CC(C)(C)c3[nH]c(=O)c(Cc4ccc(F)cc4)cc32)[C@@H](CN2CCO[C@H](COCCOCCOC[C@@H]3CN(C[C@H]4CN[C@H](C)CN4CC(=O)N4CC(C)(C)c5[nH]c(=O)c(Cc6ccc(F)cc6)cc54)CCO3)C2)CN1 [Example 83, 1,1′-(2,2′-((3R,3′R,6R,6′R)-(((2S,2'S)-(((oxybis(ethane-2,1-diyl))bis(oxy))bis(methylene))bis(morpholine-2,4-diyl))bis(methylene))bis(3-methylpiperazine-6,1-diyl))bis(acetyl))bis(6-(4-fluorobenzyl)-3,3-dimethyl-1,2,3,4-tetrahydro-5H-pyrrolo[3,2-b]pyridin-5-one)]",3.16 to 10 µM,15.8 to 31.6 nM,3.16 to 10 µM,15.8 to 31.6 nM,"+++ (10,000>FS>1,000)",12.6 to 63.1 nM,15.8 to 31.6 nM,"+++ (10,000>FS>1,000)"
"C[C@@H]1CN(CC(=O)N2CC(C)(C)c3[nH]c(=O)c(Cc4ccc(F)cc4)cc32)[C@@H](CN2CCO[C@H](C(=O)NCCCCCCCCCCNC(=O)[C@@H]3CN(C[C@H]4CN[C@H](C)CN4CC(=O)N4CC(C)(C)c5[nH]c(=O)c(Cc6ccc(F)cc6)cc54)CCO3)C2)CN1 [Example 120, (2S,2'S)-N,N′-(decane-1,10-diyl)bis(4-(((2R,5R)-1-(2-(6-(4-fluorobenzyl)-3,3-dimethyl-5-oxo-2,3,4,5-tetrahydro-1H-pyrrolo[3,2-b]pyridin-1-yl)-2-oxoethyl)-5-methylpiperazin-2-yl)methyl)morpholine-2-carboxamide)]",1 to 3.16 µM,15.8 to 31.6 nM,1 to 3.16 µM,7.94 to 15.8 nM,"+++ (10,000>FS>1,000)",63.1 to 316 nM,7.94 to 15.8 nM,"+++ (10,000>FS>1,000)"
